Test results published in patent EP4603105A1, “PHARMACEUTICAL COMPOSITION CONTAINING CYCLIC COMPOUND HAVING SELECTIVE KRAS INHIBITORY EFFECT AGAINST HRAS AND NRAS” (CHUGAI SEIYAKU KABUSHIKI KAISHA, priority 2022, dated 2024).
pIC50: −log10 of the molar value. Where a SMILES comes first, the peptide text is derived from it. Bridges are numbered along the chain shown (N, C = ends). [ ]: non-standard residue; d: D form. The star is where a group is joined. hPhe(3-Cl-4-CF3) = N[C@@H](CCc1ccc(C(F)(F)F)c(Cl)c1)C(=O)O; NPrPhe(4-CF3) = CCCN[C@@H](Cc1ccc(C(F)(F)F)cc1)C(=O)O; NMeGly(cPent) = CN[C@H](C(=O)O)C1CCCC1; NMeD = CN[C@@H](CC(=O)O)C(=O)O; NMeL = CN[C@@H](CC(C)C)C(=O)O; Morpholide = C1CN(*)CCO1; NMeA = CN[C@@H](C)C(=O)O; Ac4c = NC1(C(=O)O)CCC1; Sar = CNCC(=O)O

Tests used:
[1] = biological target: GDP-bound NRAS wild-type protein (Homo sapiens, UniProt P01111); experiment: Binding to NRAS by surface plasmon resonance (SPR), KD and KD ratio to KRAS
Sequence of GDP-bound NRAS wild-type protein (P01111 whole entry): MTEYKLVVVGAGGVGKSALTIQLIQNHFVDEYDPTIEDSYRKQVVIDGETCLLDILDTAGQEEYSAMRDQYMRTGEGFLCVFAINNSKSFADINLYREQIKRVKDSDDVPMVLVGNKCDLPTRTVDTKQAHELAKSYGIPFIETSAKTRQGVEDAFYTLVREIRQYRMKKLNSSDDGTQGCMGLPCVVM
Method in brief: (§1)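 Measured at 30°C: SPR with GDP-loaded, E. coli-expressed biotin-Avi RAS captured (~100–300 RU), ascending 75 s compound injections, HBS pH 7.4 with GDP, MgCl2, 4% DMSO. KD from 1:1 fit.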

HRAS wild-type protein = HRAS wild-type protein (Homo sapiens, UniProt P01112); experiment: Binding to HRAS by surface plasmon resonance (SPR), KD and KD ratio to KRAS
Sequence of HRAS wild-type protein (P01112 whole entry): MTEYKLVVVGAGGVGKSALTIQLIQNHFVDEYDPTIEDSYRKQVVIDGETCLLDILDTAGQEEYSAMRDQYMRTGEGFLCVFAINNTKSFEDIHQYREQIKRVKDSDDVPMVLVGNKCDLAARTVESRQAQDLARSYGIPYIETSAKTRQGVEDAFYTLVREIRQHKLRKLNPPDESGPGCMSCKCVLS
Method in brief: as §1

[2] = system: human lung cancer strain NCI-H441; format: cell-based
Method in brief: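 Signal came from […] measured per well once the reagent was added. Beforehand, cells were cultured at 37°C and 5% carbon dioxide on a compound series serially diluted in dimethyl sulfoxide.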

[3] = ratio of KD value for GDP-bound NRAS wild-type protein to KD value for KRAS (SPR)
[4] = ratio of KD value for HRAS wild-type protein to KD value for KRAS (SPR)
[5] = ratio of the KD value with respect to GDP-bound NRAS wild-type protein to the KD value with respect to KRAS
[6] = ratio of the KD value with respect to HRAS wild-type protein to the KD value with respect to KRAS

Row | Compound | pIC50 [2] | NRAS /KRAS [1, 3] | HRAS /KRAS (HRAS wild-type protein; [4]) | NRAS /KRAS [1, 5] | HRAS /KRAS (HRAS wild-type protein; [6])
1 | CCC[C@H]1C(=O)N[C@@H]([C@@H](C)CC)C(=O)N(C)CC(=O)N(C)[C@H]2C/C=C\CCN(C2=O)[C@@H](Cc2ccc(C)cc2)C(=O)N(C)CC(=O)N[C@@H](CCc2ccc(C(F)(F)F)c(OC)c2)C(=O)N2C[C@@H](C)C[C@H]2C(=O)NC2(CC(C)(C)C2)C(=O)N(C)[C@@H](C2CCCC2)C(=O)N(C)[C@H](C(=O)N(C)CC)CC(=O)N1C [PP1889] | 7.90 | A (a compound having 10 or more and less than 20 is denoted as A) | B (a compound having 3 or more and less than 10 is denoted as B) |  | 
2 | CCC[C@H]1C(=O)N[C@@H]([C@@H](C)CC)C(=O)N(C)CC(=O)N(C)[C@H]2C/C=C\CCN(C2=O)[C@@H](Cc2ccc(C)cc2)C(=O)N(C)CC(=O)N[C@@H](CCc2ccc(C(F)(F)F)c(OC)c2)C(=O)N2C[C@H](C)C[C@H]2C(=O)NC2(CC(C)(C)C2)C(=O)N(C)[C@@H](C2CCCC2)C(=O)N(C)[C@H](C(=O)N(C)CC)CC(=O)N1C [PP1891] | 8.59 | A (a compound having 10 or more and less than 20 is denoted as A) | A (a compound having 10 or more and less than 20 is denoted as A) |  | 
3 | CCC[C@H]1C(=O)N[C@@H]([C@@H](C)CC)C(=O)N(C)CC(=O)N(C)[C@H]2C/C=C\CCN(C2=O)[C@@H](Cc2ccc(C)cc2)C(=O)N(C)CC(=O)N[C@@H](CCc2ccc(C(F)(F)F)c(Cl)c2)C(=O)N2C[C@@H](C)C[C@H]2C(=O)NC2(CC(C)(C)C2)C(=O)N(C)[C@@H](C2CCCC2)C(=O)N(C)[C@H](C(=O)N(C)CC)CC(=O)N1C [PP1893] | 7.73 | A (a compound having 10 or more and less than 20 is denoted as A) | B (a compound having 3 or more and less than 10 is denoted as B) |  | 
4 | CC[C@H](C)[C@@H]1NC(=O)[C@H](CC(C)C)N(C)C(=O)C[C@@H](C(=O)N(C)CC)N(C)C(=O)[C@H](C2CCCC2)N(C)C(=O)C2(CCC2)NC(=O)[C@@H]2C[C@H](C)CN2C(=O)[C@H](CCc2ccc(C(F)(F)F)c(OC)c2)NC(=O)CN(C)C(=O)[C@H](Cc2ccc(C)cc2)N2CC/C=C\C[C@@H](C2=O)N(C)C(=O)CN(C)C1=O [PP1904] | 7.74 |  |  | A (a compound having 10 or more and less than 20 is denoted as A) | B (a compound having 3 or more and less than 10 is denoted as B)
5 | CC[C@H](C)[C@@H]1NC(=O)[C@H](CC(C)C)N(C)C(=O)C[C@@H](C(=O)N(C)CC)N(C)C(=O)[C@H](C2CCCC2)N(C)C(=O)C2(CC(C)(C)C2)NC(=O)[C@@H]2C[C@H](C)CN2C(=O)[C@H](CCc2ccc(C(F)(F)F)c(OC)c2)NC(=O)CN(C)C(=O)[C@H](Cc2ccc(C)cc2)N2CC/C=C\C[C@@H](C2=O)N(C)C(=O)CN(C)C1=O [PP1906] | 7.97 |  |  | A (a compound having 10 or more and less than 20 is denoted as A) | A (a compound having 10 or more and less than 20 is denoted as A)
6 | CC[C@H](C)[C@@H]1NC(=O)[C@H](CC(C)C)N(C)C(=O)C[C@@H](C(=O)N(C)CC)N(C)C(=O)[C@H](C2CCCC2)N(C)C(=O)C2(CCC2)NC(=O)[C@@H]2C[C@@H](C)CN2C(=O)[C@H](CCc2ccc(C(F)(F)F)c(OC)c2)NC(=O)CN(C)C(=O)[C@H](Cc2ccc(C)cc2)N2CC/C=C\C[C@@H](C2=O)N(C)C(=O)CN(C)C1=O [PP1907] | 7.63 |  |  | AA (a compound having 20 or more is denoted as AA) | A (a compound having 10 or more and less than 20 is denoted as A)
7 | CC[C@H](C)[C@@H]1NC(=O)[C@H](CC(F)F)N(C)C(=O)C[C@@H](C(=O)N(C)CC)N(C)C(=O)[C@H](C2CCCC2)N(C)C(=O)C2(CC(C)(C)C2)NC(=O)[C@@H]2C[C@H](C)CN2C(=O)[C@H](CCc2ccc(C(F)(F)F)c(Cl)c2)NC(=O)CN(C)C(=O)[C@H](Cc2ccc(C)cc2)N2CC/C=C\C[C@@H](C2=O)N(C)C(=O)CN(C)C1=O [PP1911] | 7.93 |  |  | A (a compound having 10 or more and less than 20 is denoted as A) | A (a compound having 10 or more and less than 20 is denoted as A)
8 | CCCN1C(=O)CN(C)C(=O)CN(C)C(=O)[C@H]([C@@H](C)CC)NC(=O)[C@H](CC(C)C)N(C)C(=O)C[C@@H](C(=O)N2CCOCC2)N(C)C(=O)[C@H](C2CCCC2)N(C)C(=O)C2(CCC2)NC(=O)[C@H](C)N(C)C(=O)[C@H](CCc2ccc(C(F)(F)F)c(Cl)c2)NC(=O)CN(C)C(=O)[C@@H]1Cc1ccc(C(F)(F)F)cc1 [PP1916] ([NMeL]I[Sar][Sar][NPrPhe(4-CF3)][Sar][hPhe(3-Cl-4-CF3)][NMeA][Ac4c][NMeGly(cPent)][NMeD]-Morpholide; lactam N-11) | 7.77 |  |  | B (a compound having 3 or more and less than 10 is denoted as B) | C (A compound having a KD ratio of 0.1 or more and less than 3 is denoted as C)

The next lines start with results.

Row | pIC50 [2] | Compound | NRAS /KRAS [1, 3] | HRAS /KRAS (HRAS wild-type protein; [4]) | NRAS /KRAS [1, 5] | HRAS /KRAS (HRAS wild-type protein; [6])
9 | 8.32 | CCC[C@H]1C(=O)N[C@@H]([C@@H](C)CC)C(=O)N(C)CC(=O)N(C)[C@H]2C/C=C\CCN(C2=O)[C@@H](Cc2ccc(C)cc2)C(=O)N(C)CC(=O)N[C@@H](CCc2ccc(C(F)(F)F)c(OC)c2)C(=O)N2C[C@H](OCC)C[C@H]2C(=O)NC2(CC(C)(C)C2)C(=O)N(C)[C@@H](C2CCCC2)C(=O)N(C)[C@H](C(=O)N(C)C)CC(=O)N1C [PP1892] | A (a compound having 10 or more and less than 20 is denoted as A) | B (a compound having 3 or more and less than 10 is denoted as B) |  | 
10 | 7.81 | CCC[C@H]1C(=O)N[C@@H]([C@@H](C)CC)C(=O)N(C)CC(=O)N(C)[C@H]2C/C=C\CCN(C2=O)[C@@H](Cc2ccc(C)cc2)C(=O)N(C)CC(=O)N[C@@H](CCc2ccc(C(F)(F)F)c(Cl)c2)C(=O)N2C[C@H](OCC)C[C@H]2C(=O)NC2(CCC2)C(=O)N(C)[C@@H](C2CCCC2)C(=O)N(C)[C@H](C(=O)N(C)CC)CC(=O)N1C [PP1895] | A (a compound having 10 or more and less than 20 is denoted as A) | B (a compound having 3 or more and less than 10 is denoted as B) |  | 
11 | 8.28 | CCC[C@H]1C(=O)N[C@@H]([C@@H](C)CC)C(=O)N(C)CC(=O)N(C)[C@H]2C/C=C\CCN(C2=O)[C@@H](Cc2ccc(C)cc2)C(=O)N(C)CC(=O)N[C@@H](CCc2ccc(C(F)(F)F)c(Cl)c2)C(=O)N2C[C@H](OCC)C[C@H]2C(=O)NC2(CC(C)(C)C2)C(=O)N(C)[C@@H](C2CCCC2)C(=O)N(C)[C@H](C(=O)N(C)C)CC(=O)N1C [PP1896] | A (a compound having 10 or more and less than 20 is denoted as A) | B (a compound having 3 or more and less than 10 is denoted as B) |  | 
12 | 8.20 | CC[C@H](C)[C@@H]1NC(=O)[C@H](CC2CC2)N(C)C(=O)C[C@@H](C(=O)N(C)C)N(C)C(=O)[C@H](C2CCCC2)N(C)C(=O)C2(CC(C)(C)C2)NC(=O)[C@@H]2C[C@H](C)CN2C(=O)[C@H](CCc2ccc(C(F)(F)F)c(OC)c2)NC(=O)CN(C)C(=O)[C@H](Cc2ccc(C)cc2)N2CC/C=C\C[C@@H](C2=O)N(C)C(=O)CN(C)C1=O [PP1898] |  |  | B (a compound having 3 or more and less than 10 is denoted as B) | B (a compound having 3 or more and less than 10 is denoted as B)
13 | 7.36 | CCO[C@@H]1C[C@H]2C(=O)NC3(CC(C)(C)C3)C(=O)N(CC)[C@@H](C3CCCC3)C(=O)N(C)[C@H](C(=O)N(C)C)CC(=O)N(C)[C@@H](CC)C(=O)N[C@@H]([C@@H](C)CC)C(=O)N(C)CC(=O)N(C)[C@H]3C/C=C\CCN(C3=O)[C@@H](Cc3ccc(C(F)(F)F)cc3)C(=O)N(C)CC(=O)N[C@@H](CCc3cc(F)c(C(F)(F)F)c(F)c3)C(=O)N2C1 [PP1913] |  |  | A (a compound having 10 or more and less than 20 is denoted as A) | A (a compound having 10 or more and less than 20 is denoted as A)
14 | 7.73 | CCO[C@@H]1C[C@H]2C(=O)NC3(CC(C)(C)C3)C(=O)N(C)[C@@H](C3CCCC3)C(=O)N(C)[C@H](C(=O)N(C)C)CC(=O)N3CCCCC[C@H]3C(=O)N[C@@H]([C@@H](C)CC)C(=O)N(C)CC(=O)N(C)[C@H]3C/C=C\CCN(C3=O)[C@@H](Cc3ccc(C(F)(F)F)cc3)C(=O)N(C)CC(=O)N[C@@H](CCc3cc(F)c(C(F)(F)F)c(F)c3)C(=O)N2C1 [PP1915] |  |  | A (a compound having 10 or more and less than 20 is denoted as A) | A (a compound having 10 or more and less than 20 is denoted as A)
15 | 7.65 | CCCN(C)C(=O)[C@@H]1CC(=O)N(C)[C@@H](CC(C)C)C(=O)N[C@@H]([C@@H](C)OC)C(=O)N(C)CC(=O)N(C)[C@H]2C/C=C\CCN(C2=O)[C@@H](Cc2ccc(C(F)(F)F)cc2)C(=O)N(C)CC(=O)N[C@@H](CCc2cc(F)c(C(F)(F)F)c(F)c2)C(=O)N2C[C@H](OCC)C[C@H]2C(=O)NC2(CC(C)(C)C2)C(=O)N(C)[C@@H](C2CCCC2)C(=O)N1C [PP1917] |  |  | A (a compound having 10 or more and less than 20 is denoted as A) | A (a compound having 10 or more and less than 20 is denoted as A)
